Entries after “also recorded” stand apart in the source; their conditions may differ. Where a name gives a salt, the structure may show the parent alone.
Assays:
[1] = Thermal decomposition properties of salt forms (TGA); type: physicochemical
From the text: The thermal decomposition properties of a range of salt forms of 5-MeO-DMT has been investigated and is summarised in the report below: […]

[2] = Phase 1 single ascending dose study of liquid intranasal 5-MeO-DMT HCl formulation; type: in vivo, human; settings: liquid intranasal formulation, 5, 8, 10, 11 and 14 mg, healthy subjects
From the text: (§1) The applicant has funded double-blind, randomized, Phase 1, single ascending dose studies to evaluate the safety, tolerability and pharmacokinetic profile of intranasal 5-MeO-DMT hydrochloride and intranasal 5-MeO-DMT benzoate in healthy subjects. […] It is desirable that a compound for use in treatment has dose-proportional pharmacokinetics, for example, to facilitate dose and dose regimen adjustment in patients. In an embodiment, there is provided a salt of 5-MeO-DMT with dose-proportional pharmacokinetics, optionally for use in the methods disclosed herein. In an embodiment, the salt of 5-MeO-DMT with dose-proportional pharmacokinetics is the benzoate or HBr salt, optionally the benzoate salt. A double-blind, randomized, Phase 1, single ascending dose study to evaluate the safety, tolerability and pharmacokinetic profile of a liquid intranasal 5-MeO-DMT HCl (5-MeO-DMT HCl, HPMC, water for injection (WFI) and a sodium hydroxide solution to adjust pH) formulation in healthy subjects was performed.

[3] = Phase 1 single ascending dose study of intranasal 5-MeO-DMT benzoate (safety, tolerability, pharmacokinetics); type: in vivo, human
From the text: as §1
A double-blind, randomized, Phase 1, single ascending dose study to evaluate the safety, tolerability and pharmacokinetic profile of intranasal 5-MeO-DMT benzoate in healthy subjects was performed.

[4] = Solubility studies of lyophilised amorphous form (dissolution rate); type: physicochemical
From the text: Amorphous 5-MeO-DMT salt formulations have been produced via lyophilisation processes. It is noted that in some cases these have low glass transition temperatures. Conversion to a crystalline form may therefore occur, perhaps rapidly.

Irritation tolerability = settings: in particular when compared to the chloride salt
[5] = Previous preclinical work in dogs defining maximum exposure limits; settings: dog, in vivo
Hygroscopicity = type: physicochemical
From the text: In an embodiment, the formulation is non-hygroscopic. […] Hygroscopicity is the phenomenon of attracting and holding water molecules via either adsorption or absorption from the surrounding environment. Pharmaceuticals that pick up less than 0.2% moisture at 80% RH are considered non hygroscopic. […] Pharmaceuticals that pick up more than 15.0% moisture at 80% RH are considered very hygroscopic. Hygroscopic substances are difficult to handle and costly and burdensome measures must be taken in order to ensure they are not exposed to moisture during process and formulation. Exposed to moisture, hygroscopic substances can take on water and convert to a hydrous form. This presents several disadvantages. First, the hydrous forms may have the disadvantage of being less bioavailable and less dissoluble than the anhydrous forms. Second, the variation in the amount of hydrous versus anhydrous substance from batch to batch could fail to meet specifications set by drug regulatory agencies. […] Fourth, in addition to problems caused by introduction of moisture during the processing of these hygroscopic substances, the potential for absorbance of moisture during storage and handling would adversely affect the dissolubility of the drug substance.

[6] = at 20° C. water; cited from earlier work

5-MeO-DMT glycolate
TGA Guidance: decomposition temperature [1]: Melt 95° C., gross dcomp starts 170 °C

5-MeO-DMT malate
TGA Guidance: decomposition temperature [1]: Melt 100° C, gross dcomp starts 250 °C

5-MeO-DMT tartrate
TGA Guidance: decomposition temperature [1]: Melt ~140° C., decomp ~200 °C

COc1ccc2[nH]cc(CCN(C)C)c2c1.Cl [5-MeO-DMT HCl, 5-MeO-DMT hydrochloride]
dose proportionality of pharmacokinetics [2]: does not display dose-proportional pharmacokinetics

COc1ccc2[nH]cc(CCN(C)C)c2c1.O=C(O)c1ccccc1 [5-MeO-DMT benzoate]
TGA Guidance: decomposition temperature [1]: ~220 °C
TGA Guidance: mass loss [1]: full mass loss
dose proportionality of pharmacokinetics ([3]; intranasal single ascending dose, healthy subjects): exhibits dose-proportional pharmacokinetics; also recorded: approximately dose linear
mean Cmax ([3]; intranasal, 12 mg dosage, healthy subjects, plasma 5-MeO-DMT): 29 ng/mL
mean Tmax ([3]; intranasal, healthy subjects): 9.5 min
mean half-life (T1/2) ([3]; intranasal, healthy subjects): 21 min
dissolution rate [4]: almost instantaneous dissolution rate
irritation tolerability (Irritation tolerability): good irritation tolerability

COc1ccc2[nH]cc(CCN(C)C)c2c1.O=S(=O)(O)c1ccccc1 [Benzenesulfonate, 5-MeO-DMT benzenesulfonate]
TGA Guidance: decomposition temperature [1]: Melt 76° C., gross dcomp starts 280 °C

CN(C)CCc1c[nH]c2ccc(O)cc12 [Bufotenin]
detection of metabolite in plasma ([3]; after intranasal 5-MeO-DMT benzoate, 6 mg dose level, after the 16 minutes timepoint): only detected at very low levels

COc1ccc2[nH]cc(CCN(C)C)c2c1 [Example 5-MeO-DMT, 5-methoxy-N,N-dimethyltryptamine]
AUC ([5]; read-out: maximum exposure limit AUC): 220 ng·h/mL
Cmax ([5]; read-out: maximum exposure limit Cmax): 421 ng/mL

COc1ccc2[nH]cc(CCN(C)C)c2c1 [Fumarate, 5-MeO-DMT fumarate]
TGA Guidance: decomposition temperature [1]: Decomp around 200 °C

Br.COc1ccc2[nH]cc(CCN(C)C)c2c1 [Hydrobromide, 5-MeO-DMT hydrobromide]
TGA Guidance: decomposition temperature [1]: Melt 149° C., gross dcomp starts 220 °C
hygroscopicity (Hygroscopicity): non-hygroscopic

COc1ccc2[nH]cc(CCN(C)C)c2c1 [Ketoglutarate, 5-MeO-DMT ketoglutarate]
TGA Guidance: decomposition temperature [1]: Melt 85° C., gross dcomp starts 170 °C

COc1ccc2[nH]cc(CCN(C)C)c2c1.O=C(O)C(=O)O [Oxalate, 5-MeO-DMT oxalate]
TGA Guidance: mass loss [1]: Melts 176° C., full mass loss

COc1ccc2[nH]cc(CCN(C)C)c2c1 [Phosphate, 5-MeO-DMT phosphate]
TGA Guidance: decomposition temperature [1]: Decomp around 200 °C

COc1ccc2[nH]cc(CCN(C)C)c2c1 [Saccharinate, 5-MeO-DMT saccharinate]
TGA Guidance: decomposition temperature [1]: Melt 80° C., gross dcomp starts 180 °C

COc1ccc2[nH]cc(CCN(C)C)c2c1 [Tosylate, 5-MeO-DMT tosylate]
TGA Guidance: decomposition temperature [1]: Melt 110° C, gross dcomp starts 280 °C ° C.

isomalt
Solubility [6]: 42 g/100 g solution

Source: patent US12246005B2, “5-methoxy-n,n-dimethyltryptamine (5-MeO-DMT) formulations” (Beckley Psytech Limited, priority 2023, dated 2025)
